From the supplement of paper PMC10307832

Key:
Test in all cases: relative viability (nuclei count vs DMSO), 5 days (fraction); higher = more cells survive
[1] = compound: Cc1cc([C@@H](C)Nc2ccccc2C(=O)O)c2nc(N3CCOCC3)cc(=O)n2c1 [AZD6482] + CS(=O)(=O)N1CCN(Cc2cc3nc(-c4cccc5[nH]ncc45)nc(N4CCOCC4)c3s2)CC1 [Pictilisib] (partner 1 µM)
How it was run: (§1)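 Relative viability divides the nuclei count in treated wells by that in vehicle wells. Lung cancer cell lines were seeded in 1536-well plates, dosed by pin tool the next day, and fixed and stained after 5 days in one step with final 0.05% Triton X-100, 1% formaldehyde and 1 ug/ml Hoechst. Dosing was a single drug or a fixed anchor-drug dose plus five library-drug doses (not always all listed) in √10 steps, and values are medians of duplicate plates imaged at 4×.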

[2] = compound: COc1cc2nc(N3CCCN(C)CC3)nc(NC3CCN(Cc4ccccc4)CC3)c2cc1OC + CC(=O)Nc1cccc(-n2c(=O)n(C3CC3)c(=O)c3c(Nc4ccc(I)cc4F)n(C)c(=O)c(C)c32)c1 [Trametinib] (partner 0.02 µM)
How it was run: as §1

[3] = compound: COc1cc2nc(N3CCCN(C)CC3)nc(NC3CCN(Cc4ccccc4)CC3)c2cc1OC + CCNC(=O)c1noc(-c2cc(C(C)C)c(O)cc2O)c1-c1ccc(CN2CCOCC2)cc1 [Luminespib] (partner 0.01 µM)
How it was run: as §1

[4] = compound: Cc1cc([C@@H](C)Nc2ccccc2C(=O)O)c2nc(N3CCOCC3)cc(=O)n2c1 [AZD6482] + O=C(c1cc(Cc2n[nH]c(=O)c3ccccc23)ccc1F)N1CCN(C(=O)C2CC2)CC1 [Olaparib] (partner 8 µM)
How it was run: as §1

Cell Line	relative viability ([1]; first compound 0.08 µM)	relative viability ([1]; first compound 0.253 µM)	relative viability ([1]; first compound 0.8 µM)	relative viability ([1]; first compound 2.53 µM)	relative viability ([1]; first compound 8 µM)	relative viability ([2]; first compound 0.2 µM)	relative viability ([2]; first compound 0.6325 µM)	relative viability ([2]; first compound 2 µM)	relative viability ([2]; first compound 6.325 µM)	relative viability ([3]; first compound 0.2 µM)	relative viability ([3]; first compound 0.6325 µM)	relative viability ([3]; first compound 2 µM)	relative viability ([3]; first compound 6.325 µM)	relative viability ([4]; first compound 0.08 µM)	relative viability ([4]; first compound 0.253 µM)	relative viability ([4]; first compound 0.8 µM)	relative viability ([4]; first compound 2.53 µM)	relative viability ([4]; first compound 8 µM)
SK-MES-1	0.285	0.34	0.33	0.202	0.35	0.597	0.56	0.599	0.471	0.836	0.702	0.889	0.129	0.457	0.598	0.529	0.305	0.336
SW 1573	0.415	0.459	0.445	0.304	0.447	0.446	0.518	0.572	0.368	0.179	0.27	0.356	0.152	0.478	0.4	0.486	0.401	0.369
